Experiments:
Assay in all cases: cells
Format in all cases: cell-based
[1] = system: human bronchial epithelial cell line HBE; details: for IC50: Homo sapiens, HBE, read-out: IC50 against HBE
[2] = system: human non-small-cell lung cancer A549 cells; details: A549, read-out: IC50 against A549
[3] = system: human non-small-cell lung cancer H460 cells; details: NCI-H460, read-out: IC50 against H460

| SMILES | IC50 [1] [µM] | IC50 [2] [µM] | IC50 [3] [µM] | selectivity towards cancerous cell lines over non-cancerous cell line ([1]; A549/H460 versus HBE, from IC50 values) |
| --- | --- | --- | --- | --- |
| C=C1[C@H]2C[C@@]3([C@@H]1O)[C@@H](CC2=O)[C@]12[C@@H]4C[C@H]3[C@H]1N(CC)C[C@]4(C)CC[C@@H]2O [Compound 5, songorine] | 32.4 ± 2.62 | 21.2 ± 0.84 | 25.1 ± 0.59 | – |
| O=c1[nH]cc(F)c(=O)[nH]1 [Compound 5-FU, 5-fluorouracil, reference compound] | 8.93 ± 6.05 | 12.5 ± 8.81 | 6.16 ± 1.8 | – |
| CCN1C[C@]2(COC)CC[C@H](OC)[C@]34C1C([C@H](OC)[C@H]23)[C@]1(OC(C)=O)[C@H]2[C@@H](OC(=O)c3ccccc3)[C@](O)(C[C@H]24)[C@@H](OC)[C@@H]1O [Compound 34, deoxyaconitine] | 31 ± 4.8 | 14.9 ± 4.02 | 14.6 ± 1.32 | – |
| CCN1C[C@]2(C)CC[C@H](O)[C@@]34C5C[C@@H]6[C@@H](OC)C[C@@](O)(C5[C@H]6O)[C@@H](CC23)C14 (stereo partly shown) [Compound 9, karacoline] | 49.7 ± 8.11 | 8.28 ± 0.41 | 9.69 ± 0.4 | higher selectivity |
| COC[C@@]12CC[C@H](OC)[C@]34C(C([C@H](OC)[C@H]13)[C@]1(OC(C)=O)[C@H]3[C@@H](OC(=O)c5ccccc5)[C@](O)(C[C@H]34)[C@@H](OC)[C@@H]1O)N(C)C2 [Compound 33, hypaconitine] | 32.7 ± 4.56 | 14.3 ± 1.79 | 16.5 ± 2.22 | – |
| CCN1C[C@]2(COC)CC[C@H](O)[C@@]34C5C[C@@H]6[C@@H](OC)C[C@](O)(C(CC23)C14)C5[C@H]6OC(C)=O (stereo partly shown) [Compound 30, condelphine] | 31.4 ± 6 | 16.4 ± 2.38 | 16 ± 1.15 | – |

Source: PMC9037614 (RSC Advances, 2021)
